Measurements published in patent US10597388B2, “Pyridazinone herbicides” (FMC CORPORATION, priority 2014, dated 2020).

Legend:
Test in all cases: Test D controlled growth environment herbicide test, pre- and postemergence
Format in all cases: in vivo
[1] = system: barley, spring (spring barley, Hordeum vulgare)
Outline: (§1)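 Species sown in silt loam and sprayed preemergence, or grown in peat-based medium to 2–18 cm (1- to 4-leaf stage) and sprayed postemergence, with compounds in non-phytotoxic solvent plus surfactant. Visual injury scored versus controls after 14–21 d in a controlled environment, 0 (no effect) to 100 (complete control).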

[2] = system: barley, winter (winter barley, Hordeum vulgare)
Outline: as §1

[3] = system: bluegrass (annual bluegrass, Poa annua)
Outline: as §1

[4] = system: buckwheat, wild (wild buckwheat, Polygonum convolvulus)
Outline: as §1

[5] = system: chamomile (scentless chamomile, Matricaria inodora)
Outline: as §1

[6] = system: field poppy (Papaver rhoeas)
Outline: as §1

[7] = system: galium (catchweed bedstraw, Galium aparine)
Outline: as §1

[8] = system: mustard, wild (wild mustard, Sinapis arvensis)
Outline: as §1

[9] = system: oat, wild (wild oat, Avena fatua)
Outline: as §1

[10] = system: oilseed rape (Brassica napus)
Outline: as §1

[11] = system: pigweed (Amaranthus retroflexus)
Outline: as §1

[12] = system: radish, wild (wild radish, Raphanus raphanistrum)
Outline: as §1

[13] = system: speedwell (bird's-eye speedwell, Veronica persica)
Outline: as §1

[14] = Postemergence, 31 g ai/ha, scale 0 to 100 (0 no effect, 100 complete control)
[15] = Postemergence, 125 g ai/ha, visual rating on scale 0 (no effect) to 100 (complete control), 14 to 21 d
[16] = Postemergence, 250 g ai/ha, scale 0 to 100 (0 no effect, 100 complete control)
[17] = Preemergence, 62 g ai/ha, scale 0 to 100 (0 no effect, 100 complete control)
[18] = Preemergence, 125 g ai/ha, scale 0 to 100 (0 no effect, 100 complete control)
[19] = Preemergence, 250 g ai/ha, scale 0 to 100 (0 no effect, 100 complete control)
[20] = postemergence, 62 g ai/ha, scale 0 to 100, 0 no effect, 100 complete control

Cc1ccc2ccc(C)c(-c3c(O)c(C)nn(C)c3=O)c2c1 [Compound 60]
Barley, Spring plant response rating [1, 14]: 15 | Plant response rating, Barley, Spring [1, 15]: 40 | Plant response rating, Barley, Spring [1, 16]: 50 | Plant response rating (scale of 0 to 100), Barley, Spring ([1]; Preemergence, 31 g ai/ha): 5 | Plant response rating, Barley, Spring [1, 17]: 10 | Plant response rating, Barley, Spring [1, 18]: 45 | Plant response rating, Barley, Spring [1, 19]: 60 | Plant response rating, Barley, Spring [1, 20]: 25 | Barley, Winter plant response rating [2, 14]: 10 | Plant response rating, Barley, Winter [2, 15]: 40 | Plant response rating, Barley, Winter [2, 16]: 50 | Plant response rating (scale of 0 to 100), Barley, Winter ([2]; Preemergence, 31 g ai/ha): 15 | Plant response rating, Barley, Winter [2, 17]: 30 | Plant response rating, Barley, Winter [2, 18]: 50 | Plant response rating, Barley, Winter [2, 19]: 65 | Plant response rating, Barley, Winter [2, 20]: 25 | Bluegrass plant response rating [3, 14]: 15 | Plant response rating, Bluegrass [3, 15]: 35 | Plant response rating, Bluegrass [3, 16]: 60 | Plant response rating (scale of 0 to 100), Bluegrass ([3]; Preemergence, 31 g ai/ha): 35 | Plant response rating, Bluegrass [3, 17]: 45 | Plant response rating, Bluegrass [3, 18]: 65 | Plant response rating, Bluegrass [3, 19]: 80 | Plant response rating, Bluegrass [3, 20]: 25 | Buckwheat, Wild plant response rating [4, 14]: 90 | Plant response rating, Buckwheat, Wild [4, 15]: 100 | Plant response rating, Buckwheat, Wild [4, 16]: 100 | Plant response rating (scale of 0 to 100), Buckwheat, Wild ([4]; Preemergence, 31 g ai/ha): 0 | Plant response rating, Buckwheat, Wild [4, 17]: 25 | Plant response rating, Buckwheat, Wild [4, 18]: 50 | Plant response rating, Buckwheat, Wild [4, 19]: 60 | Plant response rating, Buckwheat, Wild [4, 20]: 95 | Chamomile plant response rating [5, 14]: 75 | Plant response rating, Chamomile [5, 15]: 100 | Plant response rating, Chamomile [5, 16]: 100 | Plant response rating (scale of 0 to 100), Chamomile ([5]; Preemergence, 31 g ai/ha): 95 | Plant response rating, Chamomile [5, 17]: 100 | Plant response rating, Chamomile [5, 18]: 100 | Plant response rating, Chamomile [5, 19]: 100 | Plant response rating, Chamomile [5, 20]: 80 | Field Poppy plant response rating [6, 14]: 60 | Plant response rating, Field Poppy [6, 15]: 85 | Plant response rating, Field Poppy [6, 16]: 100 | Plant response rating (scale of 0 to 100), Field Poppy ([6]; Preemergence, 31 g ai/ha): 75 | Plant response rating, Field Poppy [6, 17]: 100 | Plant response rating, Field Poppy [6, 18]: 100 | Plant response rating, Field Poppy [6, 19]: 100 | Plant response rating, Field Poppy [6, 20]: 75 | Galium plant response rating [7, 14]: 100 | Plant response rating, Galium [7, 15]: 100 | Plant response rating, Galium [7, 16]: 100 | Plant response rating (scale of 0 to 100), Galium ([7]; Preemergence, 31 g ai/ha): 75 | Plant response rating, Galium [7, 17]: 85 | Plant response rating, Galium [7, 18]: 95 | Plant response rating, Galium [7, 19]: 100 | Plant response rating, Galium [7, 20]: 100 | Mustard, Wild plant response rating [8, 14]: 75 | Plant response rating, Mustard, Wild [8, 15]: 98 | Plant response rating, Mustard, Wild [8, 16]: 100 | Plant response rating (scale of 0 to 100), Mustard, Wild ([8]; Preemergence, 31 g ai/ha): 45 | Plant response rating, Mustard, Wild [8, 17]: 70 | Plant response rating, Mustard, Wild [8, 18]: 85 | Plant response rating, Mustard, Wild [8, 19]: 90 | Plant response rating, Mustard, Wild [8, 20]: 75 | Oat, Wild plant response rating [9, 14]: 85 | Plant response rating, Oat, Wild [9, 15]: 95 | Plant response rating, Oat, Wild [9, 16]: 100 | Plant response rating (scale of 0 to 100), Oat, Wild ([9]; Preemergence, 31 g ai/ha): 90 | Plant response rating, Oat, Wild [9, 17]: 95 | Plant response rating, Oat, Wild [9, 18]: 100 | Plant response rating, Oat, Wild [9, 19]: 100 | Plant response rating, Oat, Wild [9, 20]: 90 | Oilseed Rape plant response rating [10, 14]: 65 | Plant response rating, Oilseed Rape [10, 15]: 75 | Plant response rating, Oilseed Rape [10, 16]: 80 | Plant response rating (scale of 0 to 100), Oilseed Rape ([10]; Preemergence, 31 g ai/ha): 0 | Plant response rating, Oilseed Rape [10, 17]: 15 | Plant response rating, Oilseed Rape [10, 18]: 40 | Plant response rating, Oilseed Rape [10, 19]: 80 | Plant response rating, Oilseed Rape [10, 20]: 70 | Pigweed plant response rating [11, 14]: 75 | Plant response rating, Pigweed [11, 15]: 100 | Plant response rating, Pigweed [11, 16]: 100 | Plant response rating (scale of 0 to 100), Pigweed ([11]; Preemergence, 31 g ai/ha): 100 | Plant response rating, Pigweed [11, 17]: 100 | Plant response rating, Pigweed [11, 18]: 100 | Plant response rating, Pigweed [11, 19]: 100 | Plant response rating, Pigweed [11, 20]: 95 | Radish, Wild plant response rating [12, 14]: 65 | Plant response rating, Radish, Wild [12, 15]: 95 | Plant response rating, Radish, Wild [12, 16]: 95 | Plant response rating (scale of 0 to 100), Radish, Wild ([12]; Preemergence, 31 g ai/ha): 55 | Plant response rating, Radish, Wild [12, 17]: 90 | Plant response rating, Radish, Wild [12, 18]: 95 | Plant response rating, Radish, Wild [12, 19]: 90 | Plant response rating, Radish, Wild [12, 20]: 75 | Speedwell plant response rating [13, 14]: 85 | Plant response rating, Speedwell [13, 15]: 90 | Plant response rating, Speedwell [13, 16]: 100 | Plant response rating (scale of 0 to 100), Speedwell ([13]; Preemergence, 31 g ai/ha): 100 | Plant response rating, Speedwell [13, 17]: 100 | Plant response rating, Speedwell [13, 18]: 100 | Plant response rating, Speedwell [13, 19]: 100 | Plant response rating, Speedwell [13, 20]: 80
